According to paper PMC11357661, “Gaining Insight into Mitochondrial Targeting: AUTAC-Biguanide as an Anticancer Agent” (Molecules, 2024):
Where two headings read alike, the source gives them in different places.

What was measured:
[1] = system: mitochondria in KP4 cells; assay: Cell fluorescence assay: mitochondrial morphology by MitoTracker Deep Red FM confocal microscopy; type: cell-based; conditions: for mitochondrial morphology (MTDR): metformin 2 mM, 7 1 mM, 6 50-200 µM
Protocol: Cell fluorescence assay: KP4 cells were seeded at a density of 8 × 10^4 cells per well on top of microscope cover glasses in 6-well plates overnight. They were then treated with vehicle or the studied compounds for 24 h. The culture medium was refreshed with a solution of the MitoTracker® Deep Red FM (100 nM in DMEM). After 30 min at 37 °C, the medium was removed. Cells were washed twice with PBS and a solution of 4% paraformaldehyde was added into the wells for fixation for 10 min. Cells were washed again three times with 0.1 M glycine in PBS. A drop of mounting medium for fluorescence with DAPI was used to adhere cover glasses to microscope slides.

[2] = system: hTERT-HPNE (immortalized pancreatic cells, healthy cells); assay: Cell proliferation assay (crystal violet), EC50 determination; type: cell-based, Human; conditions: for EC50: Homo sapiens, 72 h of treatment, mean ± SD; for effect on healthy cell line hTERT-HPNE (toxicity): at the concentrations examined
Protocol: (§1) Materials and methods for in vitro experiments: Absorbance measurements for EC50 determination were performed using a SpectraMax 190 microplates reader from Molecular Devices. […] Statistical analyses were also performed using the PRISM software, using a one-way ANOVA test. Protein concentrations were determined using a Nanodrop 2000c spectrophotometer from Thermo Scientific (Waltham, MA, USA). A ChemiDoc MP Imaging System from BIO-RAD (Hercules, CA, USA) was used for imaging and analyzing Western blots. Resulting data were treated with Image Lab software (version 6.1).
Cell Lines: Human pancreatic normal epithelial (HPNE hTERT) cells were obtained from Dr. M. Ouellette (University of Nebraska Medical Center). IMR90 was obtained from Coriell Institute (I90-79). PANC1 was obtained from ATCC and KP4 from the Massachusetts General Hospital Center for Molecular Therapeutics (CMT), courtesy of Dr. Bardeesy. […] All cell lines tested negative for mycoplasma contamination. No unpublished de novo cell lines were used.
(§2) Cells were seeded at a density of 1 × 10^3 cells per well for KP4 and PANC1, 4 × 10^3 for IMR90, and 2 × 10^3 for hTERT-HPNE in 96 well plates one day prior to treatments with vehicle and compounds for 72 h. The culture medium was removed. Cells were washed twice with cold PBS, and 1% glutaraldehyde was added to the wells for fixation for 10 min. Cells were then washed with water, stained with 0.2% crystal violet for 30 min at room temperature, washed with water, and then dried. The adherent crystal violet was solubilized in 10% acetic acid and the absorbance was read at a wavelength of 590 nm for the calculation of the cell viability.

[3] = system: PANC1 pancreatic cancer cells; assay: as above; type: cell-based; conditions: Homo sapiens, PANC-1
Protocol: (§3) Materials and methods for in vitro experiments: Absorbance measurements for EC50 determination were performed using a SpectraMax 190 microplates reader from Molecular Devices. Resulting data were analyzed with PRISM software (version 10.3.0) using curve fitting with non-linear regression (log(inhibitor) vs. response—variable slope (four parameters)). Statistical analyses were also performed using the PRISM software, using a one-way ANOVA test. Protein concentrations were determined using a Nanodrop 2000c spectrophotometer from Thermo Scientific (Waltham, MA, USA). A ChemiDoc MP Imaging System from BIO-RAD (Hercules, CA, USA) was used for imaging and analyzing Western blots. Resulting data were treated with Image Lab software (version 6.1).
as §2

[4] = system: IMR90 (lung fibroblasts, healthy cells); assay: as above; type: cell-based; conditions: for EC50: Homo sapiens, IMR-90, 72 h of treatment, mean ± SD; for effect on healthy cell line IMR90 (toxicity): at the concentrations examined
Protocol: as §3, §2

[5] = system: KP4 pancreatic cancer cells; assay: as above; type: cell-based; conditions: for impact on the growth of cancer cells: KP4 and PANC1
Protocol: as §1, §2

[6] = system: LC3-II in KP4 cells; assay: Immunoblot of LC3-I and LC3-II protein levels (autophagy); type: cell-based; conditions: KP4, 24 h; for LC3-II level: relative to DMSO, metformin 200 µM and 2 mM, 7 200 µM, 6 100 and 200 µM
Protocol: Immunoblot analysis: For the protein degradation assay, cells were seeded at a density of 1 × 10^5 cells per well in 6-well plates overnight, and then treated with vehicle and compounds for 24 h. The culture medium was removed. […] Equal amounts of protein were separated via sodium dodecyl sulfate-polyacrylamide gel electrophoresis (SDS-PAGE) and transferred to nitrocellulose membranes. […] Membranes were washed again with TBST and incubated with the primary antibody overnight at 4 °C. After being washed with TBST three times, the membranes were incubated with the secondary antibody for 1 h. After being washed with TBST three times, membranes were visualized using chemiluminescence using a Western Lightning™ Plus Chemiluminescence Reagent.

[7] = system: OXPHOS proteins (vATP5A, UQCR2, SDHB, COXII, NDUFB8) in KP4 cells; assay: Immunoblot of OXPHOS mitochondrial respiratory chain proteins; type: cell-based; conditions: KP4, 24 h of treatment
Protocol: Immunoblot analysis: For the protein degradation assay, cells were seeded at a density of 1 × 10^5 cells per well in 6-well plates overnight, and then treated with vehicle and compounds for 24 h. The culture medium was removed. Cells were washed twice with cold PBS and lysed with LAEMMLI 2X (BIO-RAD, Hercules, CA, USA, 4% SDS, 20% glycerol, 0.125 M Tris-HCl (pH 6.8)). Equal amounts of protein were separated via sodium dodecyl sulfate-polyacrylamide gel electrophoresis (SDS-PAGE) and transferred to nitrocellulose membranes. […] Membranes were washed again with TBST and incubated with the primary antibody overnight at 4 °C. After being washed with TBST three times, the membranes were incubated with the secondary antibody for 1 h. After being washed with TBST three times, membranes were visualized using chemiluminescence using a Western Lightning™ Plus Chemiluminescence Reagent.

[8] = system: mitochondria (TOMM20) in KP4 cells; assay: Immunofluorescence assay of TOMM20 (mitochondrial morphology); type: cell-based; conditions: KP4, 24 h; compound 6 200 µM, metformin 2 mM
Protocol: Immunofluorescence assay: KP4 cells were seeded at a density of 8 × 10^4 cells per well on top of microscope cover glasses in 6-well plates overnight. They were then treated with vehicle or the studied compounds for 24 h. The culture medium was removed, and cells were washed three times with cold PBS. A solution of 4% paraformaldehyde was added into the wells for fixation for 10 min. Cells were washed again three times with 0.1 M glycine in PBS, then incubated with a solution of 3% BSA and 0.2% […] in PBS for 5 min at room temperature. Cells were washed again three times with a solution of 3% BSA in PBS, then incubated overnight with the primary antibody TOMM20 (1:100 in PBS, pH 7.4, 3% BSA). Cells were washed three times with 3% BSA in PBS and incubated for 1 h with the secondary antibody AF488 (1:2000 in PBS, pH 7.4, 3% BSA). Cells were finally washed three times with 3% BSA in PBS. A drop of mounting medium for fluorescence with DAPI was used to adhere cover glasses to microscope slides.
Antibodies: • I. Tom20 Antibody (F-10) #sc-17764 (Santa Cruz Biotechnology, Dallas, TX, USA): 1:100, 3% BSA in 1X PBS; • II. Goat anti-Mouse IgG (H + L) Highly Cross-Adsorbed Secondary Antibody, Alexa Fluor™ 488 #A-11029 (ThermoFisher/Invitrogen, Waltham, MA, USA): 1:2000, 3% BSA in 1X PBS.

[9] = 72 h of treatment, mean ± SD, read-out: EC50 PANC1
[10] = Pancreatic cancer cell, 72 h of treatment, mean ± SD, read-out: EC50 KP4
[11] = Homo sapiens, PANC-1, KP4 and PANC1, text summary, read-out: median effective concentration / concentration of toxic activity on pancreatic cancer cell lines
[12] = Pancreatic cancer cell, in Figure 2, read-out: EC50 KP4 (Figure 2)

Row | Structure (SMILES) | mitochondrial morphology (MTDR) ([1]; KP4, 24 h) | EC50 [2] [µM] | effect on healthy cell line hTERT-HPNE (toxicity) [2] | EC50 [3, 9] [µM] | EC50 [4] [µM] | effect on healthy cell line IMR90 (toxicity) [4] | impact on the growth of cancer cells [5] | EC50 [5, 10] [µM] | LC3-II level [6] | levels of OXPHOS mitochondrial respiratory chain proteins [7] | cells displaying a fragmented or punctate mitochondrial network ([1]; KP4, 100 µM, 24 h of treatment, MTDR) | cells maintaining a filamentous network ([1]; KP4, 200 µM (doubling of 100 µM), 24 h, MTDR) [%] | MTDR fluorescence intensity ([1]; KP4, 24 h) | EC50 ([3]; in Figure 2, read-out: EC50 PANC1 (Figure 2)) [µM] | EC50 [5, 11] [µM] | EC50 [5, 12] [µM] | selectivity index (SI) ([5]; cancer cells over healthy cells, 72 h of treatment) | effect on lysosomal degradation of LC3B (LC3-II with and without chloroquine) ([6]; in the presence of chloroquine) | mitochondrial morphology (TOMM20 immunofluorescence) [8]
1 | CCCCCCNC(=O)C(CSc1nc2c(=O)[nH]c(N)nc2n1Cc1ccc(F)cc1)NC(C)=O (stereo not drawn) [compound 7] | predominantly formed a filamentous network | 110 ± 20 | appeared to affect | > 1000 | > 1000 | without exhibiting toxicity | no discernible impact | > 1000 | elevate LC3-II levels | no effect on OXPHOS proteins | – | – | – | – | – | – | – | – | –
2 | CC(=O)NC(CSc1nc2c(=O)[nH]c(N)nc2n1Cc1ccc(F)cc1)C(=O)NCCCCCCNC(=N)NC(=N)N.O=CO (stereo not drawn) [compound 6] | punctate configuration | > 1000 | no adverse impact | 150 ± 30 | > 1000 | no adverse impact | – | 100 ± 30 | mild increase in LC3-II levels | decrease in complex I and complex IV mitochondrial respiratory chain proteins | more than 50% | < 10 | decrease in fluorescence intensity | 103 | ~100 | 74 | >10 | does not affect the degradation of LC3B | majority of cells assumed a punctate appearance
3 | CC(=O)N[C@@H](CSc1nc2c(=O)[nH]c(N)nc2n1Cc1ccc(F)cc1)C(=O)O [compound 5] | – | 3510 ± 1450 | appeared to affect | > 5000 | > 5000 | without exhibiting toxicity | no discernible impact | > 5000 | – | – | – | – | – | – | – | – | – | – | –
4 | CN(C)C(=N)N=C(N)N [Met., Metformin, reference compound] | – | > 20000 | – | 3130 ± 1410 | > 20000 | no noticeable effect | – | 1490 ± 550 | – | did not appear to affect the levels | – | – | – | – | 1000 to 4000 | 2210 | – | – | mild fragmentation of the network
5 | CCN(CC)CCCC(C)Nc1ccnc2cc(Cl)ccc12 (stereo not drawn) [chloroquine, reference compound] | – | – | – | – | – | – | – | – | increase in LC3-II levels | – | – | – | – | – | – | – | – | – | –
